Source: PubChem BioAssay (NCI)
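Dose response: 5 concentrations. Exposure: 48 h. Format: 96-well plates. Endpoint: linear interpolation; highest concentration if not reached. Here, GI50 denotes the concentration required for 50% inhibition of growth. TGI denotes the concentration required for complete inhibition of growth.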

Legend:
Assay in all cases: NCI tumour cell line growth inhibition, 48 h
[1] = tested on: OVCAR-3 ovarian
[2] = tested on: RXF 393 renal
[3] = tested on: DU-145 prostate
[4] = tested on: NCI/ADR-RES ovarian
[5] = tested on: PC-3 prostate
[6] = tested on: HCC-2998 colon
[7] = tested on: UO-31 renal
[8] = tested on: IGROV1 ovarian
[9] = tested on: NCI-H23 lung
[10] = tested on: SNB-19 CNS
[11] = tested on: HCT-15 colon
[12] = tested on: MDA-MB-435
[13] = tested on: OVCAR-8 ovarian
[14] = tested on: ACHN renal
[15] = tested on: EKVX NSCLC
[16] = tested on: OVCAR-4 ovarian
[17] = tested on: HS 578T breast
[18] = tested on: RPMI-8226 leukemia
[19] = tested on: LOX IMVI melanoma
[20] = tested on: UACC-62 melanoma
[21] = tested on: SK-MEL-28 melanoma
[22] = tested on: K-562 leukemia
[23] = tested on: MDA-MB-468 breast
[24] = tested on: MALME-3M melanoma
[25] = tested on: CCRF-CEM leukemia
[26] = tested on: SNB-75 CNS
[27] = tested on: SN12C renal
[28] = tested on: KM12 colon
[29] = tested on: SK-MEL-5 melanoma
[30] = tested on: TK-10 renal
[31] = tested on: MDA-MB-231 breast
[32] = tested on: MCF7 breast
[33] = tested on: A498 renal
[34] = tested on: OVCAR-5 ovarian
[35] = tested on: SF-539 CNS
[36] = tested on: HL-60(TB) leukemia
[37] = tested on: SF-295 CNS
[38] = tested on: U251 CNS

For Brc1ccc(-c2n(Cc3ccc4ccccc4c3)c(-c3ccccc3)c(-c3ccccc3)[n+]2Cc2ccc3ccccc3c2)cc1, the GI50 [1] was 253 nM, the TGI [1] was 2790 nM and the GI50 [2] was 212 nM. The TGI [2] was 798 nM, the GI50 [3] was 381 nM and the TGI [3] was 1480 nM. The GI50 [4] was 1440 nM, the TGI [4] was 2970 nM and the GI50 [5] was 332 nM. The TGI [5] was 1500 nM, the GI50 [6] was 344 nM and the TGI [6] was 1370 nM. The GI50 [7] was 1130 nM, the TGI [7] was 2550 nM and the GI50 [8] was 301 nM. It also gave a TGI [8] of 1490 nM, a GI50 [9] of 244 nM and a TGI [9] of 817 nM. The GI50 [10] was 314 nM, the TGI [10] was 1250 nM and the GI50 [11] was 695 nM. It also gave a TGI [11] of 2020 nM, a GI50 [12] of 295 nM and a TGI [12] of 1070 nM. It also gave a GI50 [13] of 302 nM, a TGI [13] of 1800 nM and a GI50 [14] of 363 nM. It also gave a TGI [14] of 1240 nM, a GI50 [15] of 197 nM and a TGI [15] of 1030 nM. It also gave a GI50 [16] of 300 nM, a TGI [16] of 1400 nM and a GI50 [17] of 439 nM. For the same compound, the TGI [17] was 2180 nM, the GI50 [18] was 124 nM and the TGI [18] was 744 nM. For the same compound, the GI50 [19] was 272 nM, the TGI [19] was 857 nM and the GI50 [20] was 285 nM. The TGI [20] was 1200 nM, the GI50 [21] was 428 nM and the TGI [21] was 1580 nM. For the same compound, the GI50 [22] was 152 nM, the TGI [22] was 1460 nM and the GI50 [23] was 68.7 nM. It also gave a TGI [23] of 494 nM, a GI50 [24] of 214 nM and a TGI [24] of 635 nM. It also gave a GI50 [25] of 342 nM, a TGI [25] of 2010 nM and a GI50 [26] of 189 nM. It also gave a TGI [26] of 1020 nM, a GI50 [27] of 256 nM and a TGI [27] of 1010 nM. For the same compound, the GI50 [28] was 276 nM, the TGI [28] was 1130 nM and the GI50 [29] was 169 nM. For the same compound, the TGI [29] was 316 nM, the GI50 [30] was 296 nM and the TGI [30] was 1190 nM. It also gave a GI50 [31] of 239 nM, a TGI [31] of 707 nM and a GI50 [32] of 221 nM. For the same compound, the TGI [32] was 816 nM, the GI50 [33] was 338 nM and the TGI [33] was 1310 nM. For the same compound, the GI50 [34] was 305 nM, the TGI [34] was 1240 nM and the GI50 [35] was 338 nM. The TGI [35] was 1250 nM, the GI50 [36] was 154 nM and the TGI [36] was 533 nM. For the same compound, the GI50 [37] was 220 nM, the TGI [37] was 682 nM and the GI50 [38] was 248 nM. For the same compound, the TGI [38] was 2600 nM.
In the case of C[C@H](O)C(=O)N1CCC(CCn2c(Sc3cc4c(cc3Br)OCO4)nc3c(N)ncnc32)CC1, the GI50 [23] is reported as 482 nM and the TGI [23] is reported as 2920 nM.
With Cn1c(=O)c(Cc2ccccc2F)cc2cnc(NC3CCOCC3)nc21 the GI50 [23] was greater than 25000 nM and the TGI [23] was greater than 25000 nM.
For CCOc1cc(C(C)(C)C)ccc1C1=N[C@@](C)(c2ccc(Cl)cc2)[C@@](C)(c2ccc(Cl)cc2)N1C(=O)N1CCN(CCCS(C)(=O)=O)CC1, the GI50 [23] was 2530 nM and the TGI [23] was 7920 nM.
COc1ccc(C(=O)COc2ccc(/C=C3\COc4ccc(OC)cc4C3=O)cc2)cc1 showed a GI50 [23] of 18000 nM and a TGI [23] of 88200 nM.
For COc1ccc(-c2nn(-c3ccc(NC(=O)Nc4cc(C(F)(F)F)cc(C(F)(F)F)c4)cc3)cc2-c2ccncc2)cc1Cl, the GI50 [23] was 1800 nM and the TGI [23] was 6000 nM.
Compound Cc1ccc2[nH]c(O)c(N=Nc3ccc(S(N)(=O)=O)cc3)c2c1 has a GI50 [23] of 6670 nM and a TGI [23] greater than 25000 nM.
CC/C=C\C[C@H]1C/C=C2/C(=O)C=C[C@@H]2C/C=C\CCCC(=O)O1 gave a GI50 [23] of 854 nM and a TGI [23] of 2730 nM.
COc1cc(/C=C/c2cc(/C=C/c3ccc(O)c(OC)c3)n(C(=O)Nc3ccc(C)cc3C)n2)ccc1O showed a GI50 [23] of 242 nM and a TGI [23] of 750 nM.
In the case of CCCCCCCCCCCCCCCCCCOc1ccccc1CC(=O)OCC[N+]1(C)CCCC1, the GI50 [23] is reported as 1700 nM and the TGI [23] is reported as 4510 nM.
Cc1ccc(-c2nc3ccc(Cl)cc3c(=O)n2N2C(=O)CSC2c2ccccc2Cl)cc1 (stereo not drawn) was tested, and the GI50 [23] was 57600 nM and the TGI [23] was greater than 100000 nM.
C#CCOc1cccc(-c2nc(N)nc(Nc3ccccc3SSc3ccccc3Nc3nc(N)nc(-c4cccc(OCC#C)c4)n3)n2)c1 was tested, and the GI50 [23] was greater than 33300 nM and the TGI [23] was greater than 33300 nM.
In the case of O=C(/C=C\c1ccc(NCc2ccc(C(=O)O)cc2)cc1)CCl, the GI50 [23] is reported as 7360 nM and the TGI [23] is reported as 23800 nM.
In the case of CC(C)(C[C@H]1CN(S(=O)(=O)c2cccc(C(F)(F)F)c2)c2cc(-c3cc(F)cc(OC(F)F)c3)ccc2O1)C(=O)O, the GI50 [23] is reported as 3410 nM and the TGI [23] is reported as 25100 nM.
CN(C)CCN1C(=O)c2ccc3c4c(ccc(c24)C1=O)C(=O)N(CCN=C=S)C3=O gave a GI50 [23] of 26.3 nM and a TGI [23] of 101 nM.
COc1ccc(CCN2COc3c([C@@H](C)CCC=C(C)C)ccc(C)c3C2)cc1OC gave a GI50 [23] of 1230 nM and a TGI [23] of 2950 nM.
For COc1cc2[nH]c(C(=O)c3cc(OC)c(OC)c(OC)c3)c(N)c2cc1C#CC1CC1, the GI50 [23] was 2080 nM and the TGI [23] was 8280 nM.
